Target: SARS-CoV-2 3CLpro (Severe acute respiratory syndrome coronavirus 2 (2019-nCoV) (SARS-CoV-2), UniProt P0DTD1)
Test: biochemical
Format: biochemical
Conditions: not given

Row | Structure (SMILES) | IC50 [nM]
1 | CC(c1cc(F)cc(Cl)c1)N(C(=O)Cn1nnc2ccccc21)c1ccc(-c2c[nH]cn2)cc1 (racemic) [Compound 73, 2-(benzotriazol-1-yl)-N-[4-(1H-imidazol-4-yl)phenyl]-N-[rac-(1R)-1-(3-chloro-5-fluoro-phenyl)ethyl]acetamide] | 100

Same assay, conditions: read-out: SARS-CoV-2 IC50

Row | Structure (SMILES) | IC50 [nM]
2 | O=C(Cn1nnc2ccccc21)N(Cc1ccsc1)c1ccc(-c2ccc[nH]c2=O)cc1 [Compound 17, 2-(1H-Benzo[d][1,2,3]triazol-1-yl)-N-(4-(2-oxo-1,2-dihydropyridin-3-yl)phenyl)-N-(thiophen-3-ylmethyl)acetamide] | 920 ± 210
3 | Cn1cc(-c2ccc(N(Cc3ccsc3)C(=O)Cn3nnc4ccccc43)cc2)cn1 [Compound 18, 2-(Benzotriazol-1-yl)-N-[4-(1-methylpyrazol-4-yl)phenyl]-N-(3-thienylmethyl)acetamide] | 20400 ± 420
4 | Cn1cnc(-c2ccc(N(Cc3ccsc3)C(=O)Cn3nnc4ccccc43)cc2)c1 [Compound 20, 2-(Benzotriazol-1-yl)-N-[4-(1-methylimidazol-4-yl)phenyl]-N-(3-thienylmethyl)acetamide] | 9550 ± 990
5 | CC(C)CCN(C(=O)Cn1nnc2ccccc21)c1ccc(-c2cccnc2)cc1 [Compound 22, 2-(1H-Benzo[d][1,2,3]triazol-1-yl)-N-isopentyl-N-(4-(pyridin-3-yl)phenyl)acetamide] | 4620 ± 130
6 | O=C(Cn1nnc2ccccc21)N(CC1CCC1)c1ccc(-c2cccnc2)cc1 [Compound 24, 2-(1H-Benzo[d][1,2,3]triazol-1-yl)-N-(cyclobutylmethyl)-N-(4-(pyridin-3-yl)phenyl)acetamide] | 830 ± 30
7 | O=C(Cn1nnc2ccccc21)N(CC1CCCC1)c1ccc(-c2cccnc2)cc1 [Compound 25, 2-(1H-Benzo[d][1,2,3]triazol-1-yl)-N-(cyclopentylmethyl)-N-(4-(pyridin-3-yl)phenyl)acetamide] | 1160 ± 190
8 | O=C(Cn1nnc2ccccc21)N(Cc1cscn1)c1ccc(-c2cccnc2)cc1 [Compound 27, 2-(Benzotriazol-1-yl)-N-[4-(3-pyridyl)phenyl]-N-(thiazol-4-ylmethyl)acetamide] | 1590 ± 440
9 | O=C(Cn1nnc2ccccc21)N(Cc1ccc(F)c(Cl)c1)c1ccc(-c2cccnc2)cc1 [Compound 29, 2-(Benzotriazol-1-yl)-N-[(3-chloro-4-fluoro-phenyl)methyl]-N-[4-(3-pyridyl)phenyl]acetamide] | 8530 ± 1820
10 | O=C(Cn1nnc2ccccc21)N(Cc1cc(Cl)cc(Cl)c1)c1ccc(-c2cccnc2)cc1 [Compound 32, 2-(Benzotriazol-1-yl)-N-[(3,5-dichlorophenyl)methyl]-N-[4-(3-pyridyl)phenyl]acetamide] | 176 ± 25
11 | Cc1cc(Cl)cc(CN(C(=O)Cn2nnc3ccccc32)c2ccc(-c3cccnc3)cc2)c1 [Compound 33, 2-(Benzotriazol-1-yl)-N-[(3-chloro-5-methyl-phenyl)methyl]-N-[4-(3-pyridyl)phenyl]acetamide] | 312 ± 73
12 | O=C(Cn1nnc2ccccc21)N(Cc1cncc(Cl)c1)c1ccc(-c2cccnc2)cc1 [Compound 34, 2-(Benzotriazol-1-yl)-N-[(5-chloro-3-pyridyl)methyl]-N-[4-(3-pyridyl)phenyl]acetamide] | 540 ± 70
13 | O=C(Cn1nnc2ccccc21)N(CC1CCCC1)c1ccc(-c2ccc[nH]c2=O)cc1 [Compound 68, 2-(1H-benzo[d][1,2,3]triazol-1-yl)-N-(cyclopentylmethyl)-N-(4-(2-oxo-1,2-dihydropyridin-3-yl)phenyl)acetamide] | 1300
14 | Cc1[nH]ncc1-c1ccc(N(Cc2cccc(Cl)c2)C(=O)Cn2nnc3ccccc32)cc1 [Compound 69, 2-(1H-benzo[d][1,2,3]triazol-1-yl)-N-(3-chlorobenzyl)-N-(4-(5-methyl-1H-pyrazol-4-yl)phenyl)acetamide] | 380
15 | O=C(Cn1nnc2ccccc21)N(CC1COC1)c1ccc(-c2cccnc2)cc1 [Compound 70, 2-(1H-benzo[d][1,2,3]triazol-1-yl)-N-(oxetan-3-ylmethyl)-N-(4-(pyridin-3-yl)phenyl)acetamide] | 32000
16 | Cc1ccc(CN(C(=O)Cn2nnc3ccccc32)c2ccc(-c3cccnc3)cc2)cc1Cl [Compound 71, 2-(1H-benzo[d][1,2,3]triazol-1-yl)-N-(3-chloro-4-methylbenzyl)-N-(4-(pyridin-3-yl)phenyl)acetamide] | > 50000
17 | O=C(Cn1nnc2ccccc21)N(Cc1cc(F)cc(Cl)c1)c1ccc(-c2c[nH]cn2)cc1 [Compound 72, 2-(benzotriazol-1-yl)-N-[(3-chloro-5-fluoro-phenyl)methyl]-N-[4-(1H-imidazol-4-yl)phenyl]acetamide] | 52
18 | Cc1[nH]cnc1-c1ccc(N(Cc2cc(F)cc(Cl)c2)C(=O)Cn2nnc3ccccc32)cc1 [Compound 74, 2-(benzotriazol-1-yl)-N-[(3-chloro-5-fluoro-phenyl)methyl]-N-[4-(5-methyl-1H-imidazol-4-yl)phenyl]acetamide] | 350
19 | O=C(Cn1nnc2ccccc21)N(Cc1cc(F)cc(Cl)c1)c1ccc(-c2c[nH]cn2)cn1 [Compound 75, 2-(benzotriazol-1-yl)-N-[(3-chloro-5-fluoro-phenyl)methyl]-N-[5-(1H-imidazol-4-yl)-2-pyridyl]acetamide] | 62

Row | Structure (SMILES) | IC50 [nM]
20 | O=C(Cn1nnc2ccccc21)N(Cc1cccc(C(F)(F)F)c1)c1ccc(-c2c[nH]cn2)cc1 [Compound 76, 2-(benzotriazol-1-yl)-N-[4-(1H-imidazol-4-yl)phenyl]-N-[[3-(trifluoromethyl)phenyl]methyl]acetamide] | 270
21 | N#Cc1cccc(CN(C(=O)Cn2nnc3ccccc32)c2ccc(-c3c[nH]cn3)cc2)c1 [Compound 77, 2-(benzotriazol-1-yl)-N-[(3-cyanophenyl)methyl]-N-[4-(1H-imidazol-4-yl)phenyl]acetamide] | 640
22 | O=C(Cn1nnc2ccccc21)N(Cc1cc(F)cc(F)c1)c1ccc(-c2c[nH]cn2)cc1 [Compound 78, 2-(benzotriazol-1-yl)-N-[(3,5-difluorophenyl)methyl]-N-[4-(1H-imidazol-4-yl)phenyl]acetamide] | 95
23 | O=C(Cn1nnc2ccccc21)N(CC1CCC1)c1ccc(-c2c[nH]cn2)cc1 [Compound 79, 2-(benzotriazol-1-yl)-N-(cyclobutylmethyl)-N-[4-(1H-imidazol-4-yl)phenyl]acetamide] | 1100
24 | O=C(Cn1nnc2ccccc21)N(Cc1cc(F)ccc1F)c1ccc(-c2c[nH]cn2)cc1 [Compound 80, 2-(benzotriazol-1-yl)-N-[(2,5-difluorophenyl)methyl]-N-[4-(1H-imidazol-4-yl)phenyl]acetamide] | 220
25 | O=C(Cn1nnc2ccccc21)N(Cc1cccc(F)c1F)c1ccc(-c2c[nH]cn2)cc1 [Compound 81, 2-(benzotriazol-1-yl)-N-[(2,3-difluorophenyl)methyl]-N-[4-(1H-imidazol-4-yl)phenyl]acetamide] | 400
26 | O=C(Cn1nnc2ccccc21)N(Cc1cccc(F)c1)c1ccc(-c2c[nH]cn2)cc1 [Compound 82, 2-(benzotriazol-1-yl)-N-[(3-fluorophenyl)methyl]-N-[4-(1H-imidazol-4-yl)phenyl]acetamide] | 360
27 | O=C(Cn1nnc2ccccc21)N(Cc1cc(Cl)ccc1F)c1ccc(-c2c[nH]cn2)cc1 [Compound 83, 2-(benzotriazol-1-yl)-N-[(5-chloro-2-fluoro-phenyl)methyl]-N-[4-(1H-imidazol-4-yl)phenyl]acetamide] | 76
28 | O=C(Cn1nnc2ccccc21)N(Cc1cccc(Cl)c1F)c1ccc(-c2c[nH]cn2)cc1 [Compound 84, 2-(benzotriazol-1-yl)-N-[(3-chloro-2-fluoro-phenyl)methyl]-N-[4-(1H-imidazol-4-yl)phenyl]acetamide] | 230
29 | O=C(Cn1nnc2ccccc21)N(Cc1cncc(Cl)c1)c1ccc(-c2c[nH]cn2)cc1 [Compound 85, 2-(benzotriazol-1-yl)-N-[(5-chloro-3-pyridyl)methyl]-N-[4-(1H-imidazol-4-yl)phenyl]acetamide] | 89
30 | COc1ccc(Cl)cc1CN(C(=O)Cn1nnc2ccccc21)c1ccc(-c2c[nH]cn2)cc1 [Compound 86, 2-(benzotriazol-1-yl)-N-[(5-chloro-2-methoxy-phenyl)methyl]-N-[4-(1H-imidazol-4-yl)phenyl]acetamide] | 180
31 | COc1cc(Cl)cc(CN(C(=O)Cn2nnc3ccccc32)c2ccc(-c3c[nH]cn3)cc2)c1 [Compound 87, 2-(benzotriazol-1-yl)-N-[(3-chloro-5-methoxy-phenyl)methyl]-N-[4-(1H-imidazol-4-yl)phenyl]acetamide] | 57
32 | CC(c1cc(F)cc(F)c1)N(C(=O)Cn1nnc2ccccc21)c1ccc(-c2c[nH]cn2)cc1 (stereo not shown) [Compound 88, 2-(benzotriazol-1-yl)-N-[1-(3,5-difluorophenyl)ethyl]-N-[4-(1H-imidazol-4-yl)phenyl]acetamide] | 160
33 | CC(C)CN(C(=O)Cn1nnc2ccccc21)c1ccc(-c2c[nH]cn2)cc1 [Compound 89, 2-(benzotriazol-1-yl)-N-[4-(1H-imidazol-4-yl)phenyl]-N-isobutyl-acetamide] | 680
34 | O=C(Cn1nnc2ccccc21)N(Cc1cc(F)cc(F)c1)c1ccc(C2CCNCC2)cc1 [Compound 90, 2-(benzotriazol-1-yl)-N-[(3,5-difluorophenyl)methyl]-N-[4-(4-piperidyl)phenyl]acetamide] | 1700
35 | O=C(Cn1nnc2ccccc21)N(Cc1cc(F)cc(F)c1)c1ccc(C2=CCNC2)cc1 [Compound 91, 2-(benzotriazol-1-yl)-N-[(3,5-difluorophenyl)methyl]-N-[4-(2,5-dihydro-1H-pyrrol-3-yl)phenyl]acetamide] | 130
36 | COC(=O)Cc1ccc(N(Cc2cc(F)cc(F)c2)C(=O)Cn2nnc3ccccc32)cc1 [Compound 92, methyl 2-[4-[[2-(benzotriazol-1-yl)acetyl]-[(3,5-difluorophenyl)methyl]amino]phenyl]acetate] | 1800
37 | O=C(O)Cc1ccc(N(Cc2cc(F)cc(F)c2)C(=O)Cn2nnc3ccccc32)cc1 [Compound 93, 2-[4-[[2-(benzotriazol-1-yl)acetyl]-[(3,5-difluorophenyl)methyl]amino]phenyl]acetic acid] | 23000

— US20240239772A1, “PROTEASE INHIBITORS AND METHODS OF USE” (The Cleveland Clinic Foundation, priority 2021, published 2024)
